# Test results published in ChEMBL document CHEMBL1125541, “Synthesis and antiviral evaluation of N-carboxamidine-substituted analogues of 1-beta-D-ribofuranosyl-1,2,4-triazole-3-carboxamidine hydrochloride” (J Med Chem, 1992).
# “And” between values parts separate entries of the source, which are not always exact repeats. Equal entries are not always repeated.
# How the values were obtained:
# [1] = Compound was tested in vitro for antiviral activity against sandfly fever-Sicilian (SF) virus (Concentration required for the 50%inhibition of virus-induced cell death); assay type: functional
# [2] = Compound was tested in vitro for antiviral activity against Punta Toro (PT) virus (Concentration required for the 50%inhibition of virus-induced cell death); assay type: functional
# [3] = Compound was tested in vitro for antiviral activity against Punta Toro (PT) virus (Concentration which was cytotoxic to 50% of uninfected cells); settings: read-out: TC50 (the source's name)
# [4] = Therapeutic index is expressed as ratio of TC50/IC50; settings: for selectivity ratio: read-out: TI50
# [5] = Compound was tested in vitro for antiviral activity against sandfly fever-Sicilian (SF) virus (Concentration which was cytotoxic to 50% of uninfected cells); settings: read-out: TC50 (the source's name)
# [6] = Compound was tested in vitro for antiviral activity against sandfly fever-Sicilian (SF) virus (Concentration required for the 50%inhibition of virus-induced cell death); inactive; assay type: functional
# [7] = Compound was tested in vitro for antiviral activity against Punta Toro (PT) virus (Concentration required for the 50%inhibition of virus-induced cell death); inactive; assay type: functional
# [8] = Compound was tested in vitro for antiviral activity against dengue-4-virus (Concentration which was cytotoxic to 50% of uninfected cells); settings: dengue virus type 4, uninfected cells; read-out: TC50 (the source's name)
# [9] = tested on: Influenza A virus; assay: Compound was tested in vitro for antiviral activity against influenza B virus (Concentration required for the 50%inhibition of virus-induced cell death); assay type: functional, organism-based
# [10] = tested on: Vaccinia virus; assay: Compound was tested in vitro for antiviral activity against vaccinia virus (Concentration required for the 50%inhibition of virus-induced cell death); assay type: functional, organism-based; settings: Orthopoxvirus vaccinia
# [11] = Compound was tested in vitro for antiviral activity against vaccinia virus (Concentration which was cytotoxic to 50% of uninfected cells); assay type: organism-based; settings: orthopoxvirus vaccinia, read-out: TC50 (the source's name)
# [12] = tested on: dengue virus type 4; assay: Compound was tested in vitro for antiviral activity against dengue-4- virus (Concentration required for the 50%inhibition of virus-induced cell death); assay type: functional, organism-based
# [13] = Compound was tested in vitro for antiviral activity against influenza A virus (Concentration which was cytotoxic to 50% of uninfected cells); assay type: organism-based; settings: read-out: TC50 (the source's name)
# [14] = tested on: Respiratory syncytial virus; assay: Compound was tested in vitro for antiviral activity against respiratory syncitial virus (Concentration required for the 50%inhibition of virus-induced cell death); assay type: functional, organism-based; settings: human respiratory syncytial virus
# [15] = Compound was tested in vitro for antiviral activity against respiratory syncitial virus (Concentration which was cytotoxic to 50% of uninfected cells); settings: read-out: TC50 (the source's name)
# [16] = Compound was tested in vitro for antiviral activity against dengue-4- virus (Concentration which was cytotoxic to 50% of uninfected cells); settings: read-out: TC50 (the source's name)
# [17] = Compound was tested in vitro for antiviral activity against Punta Toro (PT) virus (Concentration required for the 50%inhibition of virus-induced cell death); IA - Viral cytopathic effect reduced 25%-49% only.; assay type: functional
# [18] = tested on: dengue virus type 4; assay: Compound was tested in vitro for antiviral activity against dengue-4-virus (Concentration required for the 50%inhibition of virus-induced cell death); assay type: functional, organism-based
# [19] = Compound was tested in vitro for antiviral activity against parainfluenza type 3 virus (Concentration which was cytotoxic to 50% of uninfected cells); settings: human respirovirus 3, uninfected cells; read-out: TC50 (the source's name)
# [20] = tested on: Influenza A virus; assay: Compound was tested in vitro for antiviral activity against influenza A virus (Concentration required for the 50%inhibition of virus-induced cell death); assay type: functional, organism-based
# [21] = tested on: Human respirovirus 3; assay: Compound was tested in vitro for antiviral activity against parainfluenza type 3 virus (Concentration required for the 50%inhibition of virus-induced cell death); assay type: functional, organism-based
structure (smiles),measurement,setting,value
CCCC/N=C(/N)c1ncn(C2O[C@H](CO)[C@@H](O)[C@H]2O)n1 (some centres not stated),IC50,[1],73 µg/mL
same,IC50,[2],41 µg/mL
same,CC50,[3],660 µg/mL
same,TI50,[4],16
same,selectivity ratio,[4],13.7
same,CC50,[5],> 1000 µg/mL
Cl.OC[C@H]1O[C@@H](n2cnc(C3=NCC(O)CN3)n2)[C@H](O)[C@@H]1O (some centres not stated),IC50,[6],Not Active
same,IC50,[7],Not Active
same,CC50,[3],> 320 µg/mL
same,CC50,[5],> 320 µg/mL
Cl.N=C(N)c1ncn([C@@H]2O[C@H](CO)[C@@H](O)[C@H]2O)n1 [TARIBAVIRIN HYDROCHLORIDE],IC50,[1],36 µg/mL
same,CC50,[8],250 µg/mL
same,IC50,[9],48 µg/mL
same,IC50,[10],59 µg/mL
same,CC50,[11],> 320 µg/mL
same,IC50,[12],100 µg/mL
same,IC50,[2],83 µg/mL
same,CC50,[13],> 1000 µg/mL
same,CC50,[3],752 µg/mL
same,CC50,[5],800 µg/mL
same,IC50,[14],16 µg/mL
same,CC50,[15]; human respiratory syncytial virus,> 1000 µg/mL
N#C/N=C(/N)c1ncn(C2O[C@H](CO)[C@@H](O)[C@H]2O)n1 (some centres not stated),IC50,[6],Not Active
same,CC50,[16],> 250 µg/mL
same,IC50,[12],250 µg/mL
same,IC50,[7],Not Active
same,CC50,[3],> 1000 µg/mL
same,selectivity ratio,[4],> 1
same,CC50,[5],> 1000 µg/mL
NC(=O)CCC(/N=C(/N)c1ncn(C2O[C@H](CO)[C@@H](O)[C@H]2O)n1)C(=O)O (some centres not stated),IC50,[1],547 µg/mL
same,IC50,[2],2690 µg/mL
same,CC50,[3],> 3200 µg/mL
same,CC50,[5],> 3200 µg/mL
Cl.OC[C@H]1O[C@@H](n2cnc(C3=NCCCN3)n2)[C@H](O)[C@@H]1O,IC50,[6],Not Active
same,IC50,[7],Not Active
same,CC50,[3],> 3200 µg/mL
same,CC50,[5],> 3200 µg/mL
CNC(=O)c1ncn([C@@H]2O[C@H](CO)[C@@H](O)[C@H]2O)n1,IC50,[6],Not Active
same,IC50,[7],Not Active
same,CC50,[3],> 320 µg/mL
same,CC50,[5],> 320 µg/mL
N/C(=N/CC(=O)O)c1ncn(C2O[C@H](CO)[C@@H](O)[C@H]2O)n1 (some centres not stated),IC50,[1],566 µg/mL
same,IC50,[17],Not Active
same,CC50,[3],> 1000 µg/mL
same,selectivity ratio,[4],> 5.66
same,CC50,[5],> 3200 µg/mL
CCCCCCCC/N=C(/N)c1ncn(C2O[C@H](CO)[C@@H](O)[C@H]2O)n1 (some centres not stated),IC50,[1],339 µg/mL
same,IC50,[7],Not Active
same,CC50,[3],> 1000 µg/mL
same,selectivity ratio,[4],> 3
same,CC50,[5],> 1000 µg/mL
C/N=C(\NC)c1ncn([C@@H]2O[C@H](CO)[C@@H](O)[C@H]2O)n1.Cl,IC50,[1],94 µg/mL
same,CC50,[8],> 250 µg/mL
same,IC50,[10],184 µg/mL
same,CC50,[11],> 1000 µg/mL
same,IC50,[18],162 µg/mL
same,IC50,[2],181 µg/mL
same,CC50,[3],2900 µg/mL
same,CC50,[5],> 1000 µg/mL
C/N=C(/N)c1ncn([C@@H]2O[C@H](CO)[C@@H](O)[C@H]2O)n1.Cl,IC50,[1],104 µg/mL
same,CC50,[19],> 1000 µg/mL
same,IC50,[20],63 µg/mL
same,IC50,[10],198 µg/mL
same,CC50,[11],> 320 µg/mL
same,IC50,[2],250 µg/mL
same,CC50,[13],> 1000 µg/mL
same,CC50,[3],> 1000 µg/mL
same,IC50,[21],125 µg/mL
same,CC50,[5],> 1000 µg/mL
same,IC50,[14],24 µg/mL
same,CC50,[15]; respiratory syncytial virus,> 1000 µg/mL
COC(=N)c1ncn([C@@H]2O[C@H](CO)[C@@H](O)[C@H]2O)n1,IC50,[1],98 µg/mL
same,CC50,[8],> 250 µg/mL
same,IC50,[18],76 µg/mL
same,IC50,[2],201 µg/mL
same,CC50,[3],744 µg/mL
same,TI50,[4],8.6 and 3.7 and > 3.3
same,CC50,[5],840 µg/mL
NC(=O)CC(/N=C(/N)c1ncn(C2O[C@H](CO)[C@@H](O)[C@H]2O)n1)C(=O)O (some centres not stated),IC50,[1],484 µg/mL
same,IC50,[2],1600 µg/mL
same,CC50,[3],> 3200 µg/mL
same,CC50,[5],> 3200 µg/mL
